{"source": "patent US9439438B2", "about": "(priority 2011, dated 2016)", "key": {"HeLa cells [1]": {"tested_on": "HeLa cells", "format": "cell-based"}, "HeLa cells [2]": {"tested_on": "HeLa cells", "format": "cell-based", "remark": "listed apart in the source"}, "HeLa cells [3]": {"tested_on": "HeLa cells"}, "mice [4]": {"tested_on": "mice", "conditions": "mouse, in vivo"}, "GPP130 [5]": {"target": "T1, GPP130 (Homo sapiens, UniProt O00461)", "T1 sequence (O00461 1-696)": "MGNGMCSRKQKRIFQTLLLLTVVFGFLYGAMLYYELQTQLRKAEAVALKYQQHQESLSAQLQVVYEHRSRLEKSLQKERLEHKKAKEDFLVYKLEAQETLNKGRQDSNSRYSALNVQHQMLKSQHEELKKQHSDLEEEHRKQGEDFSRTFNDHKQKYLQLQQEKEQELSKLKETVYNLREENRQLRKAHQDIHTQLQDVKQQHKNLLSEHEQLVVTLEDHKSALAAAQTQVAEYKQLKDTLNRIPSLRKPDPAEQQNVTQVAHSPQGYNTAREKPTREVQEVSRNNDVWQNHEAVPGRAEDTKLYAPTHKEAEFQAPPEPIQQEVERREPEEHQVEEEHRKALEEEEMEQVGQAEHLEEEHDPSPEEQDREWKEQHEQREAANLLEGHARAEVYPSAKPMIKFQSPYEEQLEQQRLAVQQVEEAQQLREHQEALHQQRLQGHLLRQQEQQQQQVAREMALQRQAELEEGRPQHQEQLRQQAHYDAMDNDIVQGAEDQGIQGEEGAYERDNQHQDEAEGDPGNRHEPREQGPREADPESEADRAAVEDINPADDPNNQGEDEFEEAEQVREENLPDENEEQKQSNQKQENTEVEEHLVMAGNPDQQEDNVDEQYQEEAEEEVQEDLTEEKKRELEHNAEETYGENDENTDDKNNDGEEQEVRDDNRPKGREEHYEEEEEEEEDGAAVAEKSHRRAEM", "format": "cell-based"}, "mice [6]": {"tested_on": "mice", "conditions": "mouse, in vivo, ip"}, "[7]": {"tested_on": "vesicular stomatitis virus G protein", "format": "cell-based"}, "HeLa cells [8]": {"tested_on": "HeLa cells", "remark": "listed apart in the source"}, "HeLa cells [9]": {"tested_on": "HeLa cells", "format": "cell-based", "remark": "listed apart in the source"}, "GPP130 [10]": {"target": "T1, GPP130", "format": "cell-based", "remark": "listed apart in the source"}, "HeLa cells [11]": {"tested_on": "HeLa cells", "format": "cell-based", "remark": "listed apart in the source"}, "[12]": {"conditions": "in vivo; cited from earlier work"}, "mice [13]": {"tested_on": "mice", "conditions": "mouse, in vivo, ip, 100 mg/kg"}}, "note": "Read-outs that look alike come from different tables or passages of the source."}
{"compound": "[Cl][Mn][Cl]", "note": "[Mn, MnCl2]", "values": [{"measurement": "cellular STxB level (toxin degradation)", "setting": "HeLa cells [1]", "value": "dramatic loss of STxB"}, {"measurement": "time at which STxB is degraded in Mn-treated cells", "setting": "HeLa cells [1]", "value": "1 to 2", "unit": "h"}, {"measurement": "localization or trafficking of GP73, TGN46 and Lamp2", "setting": "HeLa cells [2]", "value": "did not alter"}, {"measurement": "STx1 concentration, relative to the LD50, at which 50% cell death was not evident", "setting": "HeLa cells [3]", "value": "> 2000", "unit": "fold"}, {"measurement": "estimated protection factor", "setting": "HeLa cells [3]", "value": 3800}, {"measurement": "protection against STx-induced cell death", "setting": "HeLa cells [3]", "value": 3800, "unit": "fold"}, {"measurement": "viability with Mn by itself", "setting": "HeLa cells [3]", "value": "did not compromise viability"}, {"measurement": "STx1-induced renal damage (kidney histology)", "setting": "mice [4]", "value": "no STx1-induced renal damage"}, {"measurement": "complete protection against lethal STx1 evident", "setting": "mice [4]", "value": "not"}, {"measurement": "health and survival after lethal STx1", "setting": "mice [4]", "value": "all Mn-treated animals remained healthy and survived"}, {"measurement": "protection against lethal STx1", "setting": "mice [4]", "value": "Complete protection"}, {"measurement": "GPP130 in cells after Mn", "setting": "GPP130 [5]", "value": "lacked GPP130"}, {"measurement": "STxB reaching the ER (STxB-KDEL)", "setting": "GPP130 [5]", "value": "STxB did not reach the ER"}, {"measurement": "STxB trafficking from the cell surface to the Golgi", "setting": "GPP130 [5]", "value": "STxB accumulated in peripheral punctate structures resembling endosomes"}, {"measurement": "apparent LD50", "setting": "mice [6]", "value": 125, "unit": "mg/kg"}, {"measurement": "paralysis and lethality", "setting": "mice [6]; 100 mg/kg", "value": "Paralysis and lethality were not seen at any time"}, {"measurement": "paralysis and lethality", "setting": "mice [6]; 150 mg/kg", "value": "got paralyzed within a few hours and were then euthanized"}, {"measurement": "paralysis and lethality", "setting": "mice [6]; 250 mg/kg", "value": "got paralyzed within minutes and died"}, {"measurement": "paralysis and lethality", "setting": "mice [6]; 500 mg/kg", "value": "got paralyzed within minutes and died"}, {"measurement": "ER-to-cell surface trafficking of vesicular stomatitis virus G protein", "setting": "[7]", "value": "did not affect"}, {"measurement": "cell viability (MTT)", "setting": "HeLa cells [8]", "value": "did not affect cell viability"}, {"measurement": "cholera toxin B-subunit (CTxB) trafficking", "setting": "HeLa cells [9]", "value": "no difference between Mn-treated and control cells"}, {"measurement": "sorting of STxB into endosomal tubules", "setting": "GPP130 [10]", "value": "abolished"}, {"measurement": "epidermal growth factor (EGF) internalization and degradation", "setting": "HeLa cells [11]", "value": "did not affect"}, {"measurement": "clearance from the system", "setting": "[12]", "value": "cleared from the system within hours"}, {"measurement": "body weight, locomotor activity and demeanor", "setting": "mice [13]", "value": "significantly lost weight, exhibited a depressed, lethargic attitude accompanied with diminished locomotor activity"}]}
